Measurements from patent publication US12668568B2, “Adamantanyl-substituted benzamide compounds and their use as P2X7 receptor antagonists” (The University of Sydney, priority 2018, dated 2026).
“And” between values parts separate entries of the source, which are not always exact repeats. Identical values can stand only once. Like-named read-outs stand apart in the source and are kept apart here.

How the values were obtained:
P-gp (human MDR1) = assay: MDCK P-glycoprotein bidirectional permeability assay; assay type: in vitro ADME, canine; settings: dog, 30 minute, 37° C.; for Papp A→B at 30 min, 10 μM: apical to basolateral; for Papp B→A at 30 min, 10 μM: basolateral to apical
Experimental: The transcellular permeability of test compounds and the influence of Pgp-mediated efflux on drug permeability was assessed using hMDR1-MDCK monolayers grown on filter supports. All compounds were dissolved in 100% DMSO to provide 10 mM stock solutions from which donor (dose) solutions were prepared in DMEM to give a final drug concentration of 10 μM. All dose solutions contained 10 μM propranolol as an internal standard. hMDR1-MDCK seeded filters were exposed to a fixed volume of the donor solution containing the compound of interest and its ability to traverse the monolayer and appear in the receiver compartment measured over a 30 minute period at 37° C. Bidirectional permeability measurements were derived by examining the transfer of compound in both the apical to basolateral compartment, and vice versa. Sample analysis was conducted using LC-MS/MS with the detection settings optimised for each test compound. Following analysis of the samples the apparent permeability coefficient (Papp, cm/sec) for the discovery compounds is determined using the following relationship: [formula] • VR=Volume of the receiver compartment • A=Surface area of the filter • CD=Drug concentration in the donor concentration • Δt=incubation time • ΔCR=the amount of drug detected in the receiver compartment The efflux ratio can be determined from these values by calculating the ratio of the Papp values derived in the B-A direction and A-B direction (i.e. Papp B-A/Papp A-B). […] P-gp) influencing transport.

CYP2C9 = target: T1, CYP2C9 (Homo sapiens, UniProt P11712); assay: Cytochrome profiling CYP2C9 (baculosomes); assay type: in vitro ADME; settings: probe fluorogenic probe substrate (not named), 10 μM substrate
T1 construct: host or cells: insect cells infected with recombinant baculovirus (microsomes)
From the text: Cytochrome P450 (abbreviated CYP, P450 or CYP450) belong to very large and diverse superfamily of haemoproteins which accept both exogenous and endogenous compounds as substrates in enzymatic reactions and play a major role in drug metabolism. Although this class has more than 50 enzymes just 5 of them (CYP1A2, CYP2C9, CYP2C19, CYP2D6 and CYP3A4) are able to metabolise almost 90% of all drugs. Inhibition of these enzymes is one of the major reasons for drug-drug interactions. Consequently, detailed CYP inhibition profiles are a regulatory requirement for all new drugs. Inhibition potencies against the five most relevant CYP isoforms is performed using baculosomes; microsomes prepared from insect cells infected with recombinant baculovirus containing cDNA for a specific human P450 isozyme. The baculosomes are incubated with drug at a concentration of 1 μM in the presence of a probe substrate for 60 minutes at 37° C. The probe is normally metabolised by the baculosomes to produce a fluorescent metabolite. A substrate drug will compete for the isozyme and reduce the metabolism of the probe resulting in a decrease in the fluorescent signal. The percent inhibition due to the presence of the test compound is calculated using the following equation: [formula] • X=fluorescent intensity observed in the presence of test compound • A=fluorescent intensity observed in control • B=fluorescent intensity observed in the presence of the probe control

[1] = In vivo pharmacokinetic study, intravenous bolus; settings: rat, 1 mg/kg intravenous bolus; for AUC / AUC(0-inf) / clearance / Tmax / Vd / Cmax / half-life: male, Hans Wistar
Experimental: Male Hans Wistar rats were purchased from Charles River Laboratories UK. During the acclimatisation period the rats were group housed in cages of three and maintained under a 12 hour light/dark cycle with free access to food and water. Temperature and humidity were controlled according to UK Home Office regulations.
All compounds were formulated immediately prior to dosing in 10% DMSO, 20% Cremophor EL, 70% saline to provide 1 mg/ml solutions. Each rat received a weight corrected dose of formulated drug at 1 mg/kg administered by intravenous bolus injection via a lateral tail vein.
Terminal plasma and brain samples were collected from n=3 animals at specified time points (0.017, 0.083, 0.25, 0.5, 1, 2, 4 and 6 hours following dose administration).
Drug quantification was performed using liquid chromatography-tandem mass spectrometry using electrospray ionisation. Pharmacokinetic parameters were calculated using Phoenix WinNonlin software.

hP2X7R = target: T2, hP2X7R (Homo sapiens, UniProt Q99572); assay: Calcium influx assay in HEK-hP2X7 cells; assay type: cell-based; settings: HEK cells expressing hP2X7R, BzATP 100 μM; mean ± standard deviation, n >3
T2 sequence (Q99572 1-595): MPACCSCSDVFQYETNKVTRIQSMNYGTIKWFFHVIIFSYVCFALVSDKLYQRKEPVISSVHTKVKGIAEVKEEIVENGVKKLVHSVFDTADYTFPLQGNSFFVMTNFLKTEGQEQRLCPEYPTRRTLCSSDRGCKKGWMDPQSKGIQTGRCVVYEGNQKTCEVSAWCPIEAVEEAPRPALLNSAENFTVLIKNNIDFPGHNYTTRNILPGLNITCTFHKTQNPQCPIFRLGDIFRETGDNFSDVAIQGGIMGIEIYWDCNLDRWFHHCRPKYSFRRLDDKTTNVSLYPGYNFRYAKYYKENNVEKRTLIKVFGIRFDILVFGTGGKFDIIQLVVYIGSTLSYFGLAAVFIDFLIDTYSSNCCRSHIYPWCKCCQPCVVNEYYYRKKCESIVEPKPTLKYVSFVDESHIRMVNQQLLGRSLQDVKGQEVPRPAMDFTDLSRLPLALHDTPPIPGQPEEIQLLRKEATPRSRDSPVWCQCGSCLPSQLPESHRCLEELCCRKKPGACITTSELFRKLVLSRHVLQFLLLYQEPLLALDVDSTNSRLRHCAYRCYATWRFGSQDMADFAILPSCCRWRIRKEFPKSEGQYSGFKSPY
Experimental: HEK293T cells transfected with cDNA for the human (HEK-hP2X7) or mouse P2X7 (HEK-mP2X7) receptor (a kind gift from Dr […] Stokes and Prof. Jim Wiley) were cultured in DMEM/F12 with 10% FBS and 500 μg/mL G418 (all from Invitrogen). […] HEK-hP2X7 or HEK-mP2X7 cells were harvested using trypsin (0.05%) with EDTA (0.03%). Cells were loaded with Fluo-4 AM (1 μM) in HBSS buffer at 37° C. for 30 min, inverting every 5 mins. […] Fluorescence was then monitored every 5 s for 5 min total monitoring. […] Data were normalized to the peak response seen with BzATP alone and the basal response seen due to injection of vehicle (see FIG. 3).

[2] = brain, read-out: T1/2 Brain (converted)
[3] = plasma, read-out: T1/2 Plasma (converted)

T1 sequence (P11712 whole entry): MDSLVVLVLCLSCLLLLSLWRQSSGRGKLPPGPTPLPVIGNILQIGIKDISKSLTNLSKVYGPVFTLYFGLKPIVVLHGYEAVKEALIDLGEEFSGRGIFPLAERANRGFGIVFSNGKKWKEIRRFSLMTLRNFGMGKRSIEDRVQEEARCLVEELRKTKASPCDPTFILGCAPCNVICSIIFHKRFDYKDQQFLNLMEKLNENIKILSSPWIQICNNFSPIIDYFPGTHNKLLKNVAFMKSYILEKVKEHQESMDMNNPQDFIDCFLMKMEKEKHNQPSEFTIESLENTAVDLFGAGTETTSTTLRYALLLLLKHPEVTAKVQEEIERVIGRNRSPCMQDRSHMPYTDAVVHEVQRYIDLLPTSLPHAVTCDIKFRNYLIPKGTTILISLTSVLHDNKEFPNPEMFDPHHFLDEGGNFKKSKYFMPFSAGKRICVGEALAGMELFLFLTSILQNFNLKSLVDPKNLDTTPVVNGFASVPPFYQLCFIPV

Row | Compound | Papp A→B at 30 min, 10 μM (P-gp (human MDR1)) [×10⁻⁶ cm/s] | Papp B→A at 30 min, 10 μM (P-gp (human MDR1)) [×10⁻⁶ cm/s] | inhibition at 60 min, 1 μM (CYP2C9) [%] | AUC ([1]; brain, read-out: AUC6 Brain) [ng·h/mL] | AUC(0-inf) ([1]; brain, read-out: AUC∞ Brain) [ng·h/mL] | clearance ([1]; brain, read-out: Cl Brain) [mL/min/kg] | Tmax ([1]; brain, read-out: Tmax Brain) [min] | Vd ([1]; brain, read-out: Vd Brain) [L/kg] | Cmax ([1]; plasma) [ng/mL] | AUC ([1]; plasma, read-out: AUC6 Plasma) [ng·h/mL] | AUC(0-inf) ([1]; plasma, read-out: AUC∞ Plasma) [ng·h/mL] | clearance ([1]; plasma, read-out: Cl Plasma) [mL/min/kg] | Tmax ([1]; plasma, read-out: Tmax Plasma) [min] | Vd ([1]; plasma, read-out: Vd Plasma) [L/kg] | Cmax Brain ([1]; brain) [ng/mL] | T1/2 Brain ([1]; brain) [min] | T1/2 Plasma ([1]; plasma) [min] | IC50 (hP2X7R) | half-life [1, 2] [min] | half-life [1, 3] [min]
1 | COc1ccc(Cl)c(C(=O)NCC23CC4(F)CC(F)(CC(F)(C4)C2)C3)c1 [Compound 1, 2-Chloro-N-((3,5,7-trifluoroadamantan-1-yl)methyl)-5-methoxybenzamide] | 30.3 | 44.2 | 9.26 | 380 | 386 | 43.2 | 1.2 | 2.1 | 1290 | 385 | 399 | 41.8 | 1.2 | 2.75 | 1464 | 75.6 | 103 | – | – | –
2 | COc1ccc(Cl)c(C(=O)NCC23CC4CC(F)(CC(F)(C4)C2)C3)c1 [Compound 2, 2-Chloro-N-((3,5-difluoroadamantan-1-yl)methyl)-5-methoxybenzamide] | 40 | 54.8 | -3 | 209 | 217 | 76.9 | 1.2 | 1.54 | 1720 | 196 | 199 | 83.5 | 1.2 | 1.41 | 1838 | – | – | 10 ± 4 nM | 35.4 | 28.2
3 | COc1ccc(Cl)c(C(=O)NCC23CC4CC(CC(F)(C4)C2)C3)c1 [Compound 3, 2-Chloro-N-((3-fluoroadamantan-1-yl)methyl)-5-methoxybenzamide] | 28.1 | 34.3 | 32.3 | 286 | 291 | 57.3 | 1.2 | 0.92 | 1260 | 175 | 178 | 93.4 | 1.2 | 1.8 | 2422 | – | – | 17.4 ± 2.9 nM | 25.8 | 25.8
4 | COc1ccc(Cl)c(C(=O)NCC23CC4CC(CC(C4)C2)C3)c1 [Compound 31, reference compound] | 40.9 | 23.6 | 75 | 221 | 246 | 67.8 | 1.2 | 0.77 | 1190 | 186 | 192 | 86.9 | 1.2 | 2.09 | 1696 | 9.6 | 28.2 | 26 nM and 25.7 nM | – | –
